{
  "source": "patent US10350240B2",
  "about": "“Lanthanum carbonate hydroxide, lanthanum oxycarbonate and methods of their manufacture and use” (Spectrum Pharmaceuticals, Inc., priority 2010, dated 2019)",
  "key": {"[1]": {"settings": "at 10 minutes, pH 3, FIG. 20 of the '782 patent; cited from earlier work"}, "[2]": {"assay": "Phosphate binding kinetics at constant pH, ICP-OES (FIG. 10)", "settings": "for phosphate binding at a pH of 3 or below: comparison of both LDOC materials; for amount of phosphate bound in 60 minutes: pH of about 6.5, 60 minutes, FIG. 10", "source_text": "FIG. 10 provides a graphical representation of the binding kinetics of LCH and a lanthanum oxycarbonate in accordance with the '782 patent (RZB-011, RZB-012), and LCH/La2O2CO3 produced in accordance with the present invention (RZB-013 and RZB-014) at 10, 20, 30, 40, […]\nIt is preferred that the amount of polymorph 037-0804 exceeds that of any other polymorph by weight. In one embodiment, the amount of polymorph 037-0804 is more than 50% of all polymorphs present and, in another embodiment, at least 90% of the polymorphs present of LDOC is La2O2CO3. In another embodiment, polymorph 037-0804 (La2O2CO3) is present in an amount of at least 95% by weight relative to other polymorphs and in still another embodiment, at least 99% by weight. It has also been determined that the phosphate binding kinetic of LDOC resulting from the present invention versus LDOC resulting from the process of the '782 patent are different as well. […] In one embodiment, therefore, the lanthanum oxycarbonate and, in another embodiment, the LDOC of the inventions have a binding kinetic at pH 6.5 at 60 minutes, of at least 150 mg PO4 per gram of lanthanum oxycarbonate/LDOC. In another embodiment, the lanthanum oxycarbonate and LDOC of the invention have a binding kinetic of at least about 180 mg PO4 per gram compound and in still a further embodiment, at least about 200 mg PO4 per gram compound. The BET surface area of the material tested was 6-7 m^2/g for RZB012 (lanthanum oxycarbonate in accordance with the '782 patent) and was about 33.9 for La2O2CO3 in accordance with the invention. Moreover, it is believed that the porosity, bulk density and flow characteristics of LDOC made in accordance with the present invention surpassed those made in accordance with the teachings of the '782 patent.\nPhosphate binding kinetics and binding capacity as illustrated in FIG. 10 as described herein (particularly with regard to RZB-012) can be measured as follows:\nStock phosphate solution (0.00527 mol PO43—per Liter—500 mg PO43—per Liter)\n3. Using a graduated cylinder measure out 1.0 L of the stock phosphate solution\n4. Add the phosphate solution to a 1.5 L Pyrex beaker. The beaker should be sufficiently large to contain the phosphate solution and allow for a 30% volume increase\n5. Run at ambient […] or 37° C. as indicated in the analytical request. If 37° C. is requested place the 1.5 L beaker containing the 1.0 L of test solution on a temperature controlled hot plate. Set temperature to 37° C. […] 6. Stir the solution constantly using an electric stirrer equipped with an impeller. Stir rate should be […] (verify with tachometer). 7. Using a 10 ml syringe remove 5 mls of solution and dispense it into a labeled sample tube. This is the T=0 sample 8. […]"}, "BET surface area": {"assay": "BET surface area", "format": "physicochemical", "settings": "for BET surface area of the material tested: material tested in FIG. 10; for Surface Area, BET Surface area (m^2/g): nitrogen adsorbate", "source_text": "(§1) By “relatively greater” it is meant that if the processes of the '782 patent and those of the present invention were run under generally identical conditions but with, for example, ammonium carbonate or bicarbonate used instead of sodium carbonate, the surface area, as measured by BET or otherwise, of the LCH or lanthanum oxycarbonates of the present invention would be even higher than that resulting from the practice of the '782 patent. The ammonium carbonate process of the present invention should yield BET surface areas (SA) in the 1 to 100 m^2/g range for LCH. […] To this end, as used herein “relatively greater BET surface area” refers to the greater BET surface area of the LDOC compound of the present invention when compared to the respective compound in U.S. Pat. No. 7,588,782 when made using similar ingredients, and under similar conditions but using the process described in that patent. As noted above, both processes are capable of producing very fine particles/high surface area. Again without wishing to be bound by any particular theory of operation, it may be that the greater porosity of the materials resulting from the present invention may effectively increase the overall surface area (or more reactive surfaces) allowing for, inter alia, improved binding kinetics. This is predicated on the porosity of individual or primary particles, not aggregates. Thus, it is believed that the primary particles of the invention provide relatively greater porosity than would be measured for particles made in accordance with the '782 patent. […] Furthermore, “porosity” as used herein means cumulative adsorption pore volume determined using a static pressure surface area analyzer with nitrogen as the adsorbate and calculating the pore size by The Barrett, Joyner, and Halenda (BJH) method (Barrett E. P., Loyner L. G. and Halenda P. P., The determination of pore volume and area distributions in porous substances. I. Computations from nitrogen isotherms, J. Am. Chem. Soc. 73 (1951) pp. 373-380).\nAs contemplated herein, BET surface area of the lanthanum compounds disclosed herein may be determined as provided in U.S. Pat. No. 7,588,782."}, "[3]": {"assay": "Porosity (BJH pore volume, pore size; nitrogen adsorption, Micromeritics TriStar 3000)", "format": "physicochemical", "settings": "for Pore Size, Adsorption pore diameter (nm): BJH adsorption; for Pore volume, Adsorption (cumulative) (cm^3/g) / Surface Area, Adsorption (cumulative) (m^2/g): BJH adsorption cumulative; for Pore Size, Desorption pore diameter (nm): BJH desorption; for Pore volume, Desorption (cumulative) (cm^3/g) / Surface Area, Desorption (cumulative) (m^2/g): BJH desorption cumulative; for Pore volume, Total-<6.4182 nM (cm^3/g): pores <6.4182 nM", "source_text": "as §1\n“Pore volume” as used herein refers to the cumulative adsorption pore volume. In one embodiment, the cumulative adsorption pore volume of the LDOC of the present invention is at least 0.015 cm^3/g. In another embodiment, it is at least 0.020 cm^3/g.\nThe porosity of the LDOC compound referred to herein as RZB-014 was analyzed and compared to that of the LDH and LDOC compounds of the '782 patent discussed above on a Micromeritics TriStar 3000 static pressure surface area analyzer using nitrogen as the adsorbate. The Barrett, Joyner, and Halenda (BJH) method was used to calculate pore size. This method uses the Kelvin model of pore filling and applies only to the mesopore (internal width between approximately 2 and 50 nm) and small macropore size range (internal width between 50 nm and approximately 300 nm)."}, "Bulk density": {"assay": "Bulk density", "format": "physicochemical", "settings": "Renazorb-013 (LCH), second block", "protocol": "Bulk density in accordance with the invention can be determined by standard methods.\nGraduated Cylinder Tare Weight was determined to be 225 g. 75 grams of sample was sieved into the graduated cylinder. The Gross Weight was determined to be 299.4 g. The volume of this sample was measured to be 141 mL. Thus, the Bulk Density of the powder is: Bulk Density (g/cc)=(299.4−225)/141=74.4/141=0.5277 g/cc Rounding this value to two decimal places gives a final reported value of 0.53 g/cc. 9.2 RSD=(R1−R2)×100/R1 where: RSD=Relative Standard Deviation (%) R1 & R2=Result of individual repeat (g/cc) 9.3 SR=R×100/V where: SR=Standard Recovery (%) R=Result for Reference Standard (g/cc) V=Historical average for standard (g/cc)"}},
  "data": [
    {"molecule": "lanthanum tricarbonate tetrahydrate", "values": [
      {"measurement": "percent of the available phosphate bound", "setting": "[1]", "result": "about 40%"}
    ]},
    {"molecule": "lanthanum oxycarbonate [RZB-012, reference compound]", "values": [
      {"measurement": "phosphate binding at a pH of 3 or below", "setting": "[2]", "result": "about the same"},
      {"measurement": "amount of phosphate bound in 60 minutes", "setting": "[2]", "result": "about 118 mg PO4 bound per gram of compound"},
      {"measurement": "BET surface area of the material tested", "setting": "BET surface area", "result": "6-7 m^2/g"},
      {"measurement": "pore diameter comparison", "setting": "[3]", "result": "not much difference in the values of pore diameter"}
    ]},
    {"molecule": "O=C([O-])[O-].[La+3].[La+3].[O-2].[O-2]", "note": "[RZB-014, Lanthanum dioxycarbonate]", "values": [
      {"measurement": "phosphate binding at a pH of 3 or below", "setting": "[2]", "result": "about the same"},
      {"measurement": "amount of phosphate bound in 60 minutes", "setting": "[2]", "result": "approximately 240 mg PO4 bound per gram of compound"},
      {"measurement": "BET surface area of the material tested", "setting": "BET surface area", "result": "about 33.9 m^2/g"},
      {"measurement": "pore diameter comparison", "setting": "[3]", "result": "not much difference in the values of pore diameter"},
      {"measurement": "pore volume compared with RZB-12 and RZB-11", "setting": "[3]; both lots of RZB-14", "result": "much higher pore volumes than RZB-12 and slightly bigger pore volume than RZB-11"},
      {"measurement": "surface area compared with RZB-11 & 12", "setting": "[3]; two lots of RZB-14", "result": "greater"}
    ]},
    {"molecule": "O=C([O-])[O-].[La+3].[OH-]", "note": "[RZB-011, lanthanum carbonate hydroxide]", "values": [
      {"measurement": "pore diameter comparison", "setting": "[3]", "result": "not much difference in the values of pore diameter"}
    ]},
    {"molecule": "O=C([O-])[O-].[La+3].[La+3].[O-2].[O-2]", "note": "[RZB-14 (264314)]", "values": [
      {"measurement": "Surface Area, BET Surface area (m^2/g)", "setting": "BET surface area", "result": 32.0039, "unit": "m^2/g"},
      {"measurement": "Pore Size, Average pore width (nm)", "setting": "[3]", "result": 3.404, "unit": "nm"},
      {"measurement": "Pore Size, Adsorption pore diameter (nm)", "setting": "[3]", "result": 5.7595, "unit": "nm"},
      {"measurement": "Pore volume, Adsorption (cumulative) (cm^3/g)", "setting": "[3]", "result": 0.0499, "unit": "cm^3/g"},
      {"measurement": "Surface Area, Adsorption (cumulative) (m^2/g)", "setting": "[3]", "result": 34.6533, "unit": "m^2/g"},
      {"measurement": "Pore Size, Desorption pore diameter (nm)", "setting": "[3]", "result": 6.0183, "unit": "nm"},
      {"measurement": "Pore volume, Desorption (cumulative) (cm^3/g)", "setting": "[3]", "result": 0.05346, "unit": "cm^3/g"},
      {"measurement": "Surface Area, Desorption (cumulative) (m^2/g)", "setting": "[3]", "result": 35.5324, "unit": "m^2/g"},
      {"measurement": "Pore volume, Total-<6.4182 nM (cm^3/g)", "setting": "[3]", "result": 0.02724, "unit": "cm^3/g"}
    ]},
    {"molecule": "O=C([O-])[O-].[La+3].[La+3].[O-2].[O-2]", "note": "[RZB-14 (264317)]", "values": [
      {"measurement": "Surface Area, BET Surface area (m^2/g)", "setting": "BET surface area", "result": 25.3032, "unit": "m^2/g"},
      {"measurement": "Pore Size, Average pore width (nm)", "setting": "[3]", "result": 4.699, "unit": "nm"},
      {"measurement": "Pore Size, Adsorption pore diameter (nm)", "setting": "[3]", "result": 5.5584, "unit": "nm"},
      {"measurement": "Pore volume, Adsorption (cumulative) (cm^3/g)", "setting": "[3]", "result": 0.03991, "unit": "cm^3/g"},
      {"measurement": "Surface Area, Adsorption (cumulative) (m^2/g)", "setting": "[3]", "result": 28.7342, "unit": "m^2/g"},
      {"measurement": "Pore Size, Desorption pore diameter (nm)", "setting": "[3]", "result": 4.8008, "unit": "nm"},
      {"measurement": "Pore volume, Desorption (cumulative) (cm^3/g)", "setting": "[3]", "result": 0.04068, "unit": "cm^3/g"},
      {"measurement": "Surface Area, Desorption (cumulative) (m^2/g)", "setting": "[3]", "result": 33.8946, "unit": "m^2/g"},
      {"measurement": "Pore volume, Total-<6.4182 nM (cm^3/g)", "setting": "[3]", "result": 0.02973, "unit": "cm^3/g"}
    ]},
    {"molecule": "O=C([O-])[O-].[La+3].[OH-]", "note": "[Batch 101008, lanthanum carbonate hydroxide]", "values": [
      {"measurement": "Surface Area", "setting": "BET surface area; Renazorb-013 (LCH), second block of experiments", "result": 14.3, "unit": "m^2/g"},
      {"measurement": "Bulk Density", "setting": "Bulk density", "result": 0.15, "unit": "g/cc"}
    ]}
  ]
}
